Assay results taken from paper PMC3192012 (Biochemistry, 2011).

Key:
His6P4H1 [1] = molecular target: T1, His6P4H1 (Dictyostelium discoideum, UniProt Q86KR9); test: […]CO2-release assay with Skp1A; format: biochemical; details: 0.05 mM [1-14C]αKG, 5 µM Skp1A, 5 µM Fe(II), 1 mM ascorbate, pH 7.4, 29 °C, αKG antagonist
His6P4H1 [2] = molecular target: T1, His6P4H1; test: […]CO2-release assay with Skp1A; format: biochemical; details: read-out: % inhibition at 1 mM

T1 sequence (Q86KR9 whole entry): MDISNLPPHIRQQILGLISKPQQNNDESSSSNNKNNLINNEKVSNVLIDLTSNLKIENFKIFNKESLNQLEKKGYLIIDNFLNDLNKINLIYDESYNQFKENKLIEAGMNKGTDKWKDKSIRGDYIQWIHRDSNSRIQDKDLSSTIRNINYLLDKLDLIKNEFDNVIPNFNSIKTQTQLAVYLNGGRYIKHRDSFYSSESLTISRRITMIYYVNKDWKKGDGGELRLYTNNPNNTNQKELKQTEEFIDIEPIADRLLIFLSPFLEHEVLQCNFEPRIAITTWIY

Compound: O=C(O)c1ccc(O)c(O)c1 [PCA]
- % inhibition (His6P4H1 [1]): the αKG antagonists DMOG and PCA, and CoCl2 (Fig. 1D)

Compound: O=C(O)/C=C/C(=O)O [fumarate]
- inhibition at 1000 µM (His6P4H1 [2]): 50 to 70%

Compound: COC(=O)CNC(=O)C(=O)OC [DMOG]
- % inhibition (His6P4H1 [1]; EtOH carrier): the αKG antagonists DMOG and PCA, and CoCl2 (Fig. 1D)

Compound: O=C(O)CC(=O)C(=O)O [oxaloacetate]
- inhibition at 1000 µM (His6P4H1 [2]): 50 to 70%

Compound: O=C(O)CCC(=O)O [succinate]
- inhibition at 1000 µM (His6P4H1 [2]): 50 to 70%
